Holding throughout (format): biochemical
For test [1], the target named is T1, PDK1 50-360 [CT-PIF] (Homo sapiens, UniProt O15530).
T1 construct: comprising residues 50-360 joined to the last 48 aminoacids from PRK2; His-tag (pFastbac-HT) (N); made in house; host or cells: insect cells (pFastbac-HT baculovirus system); the other entry of the earlier key: PKN2 (Q16513, Serine/threonine-protein kinase N2)
T1 sequence (O15530 with tags, fused parts or gaps): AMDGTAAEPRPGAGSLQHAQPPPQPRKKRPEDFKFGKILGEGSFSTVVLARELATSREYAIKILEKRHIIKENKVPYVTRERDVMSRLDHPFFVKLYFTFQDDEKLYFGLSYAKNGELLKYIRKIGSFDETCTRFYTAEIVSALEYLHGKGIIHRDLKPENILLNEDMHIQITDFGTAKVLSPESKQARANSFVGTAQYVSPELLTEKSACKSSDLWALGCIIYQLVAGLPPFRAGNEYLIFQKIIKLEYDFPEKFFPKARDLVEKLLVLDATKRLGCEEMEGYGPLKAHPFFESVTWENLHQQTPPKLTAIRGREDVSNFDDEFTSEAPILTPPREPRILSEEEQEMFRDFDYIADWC
The test can be described thus: PDK1 activity assay with T308tide. The following applies: for AC50: PDK1 50-360 [CT-PIF]; for effect on specific activity of chimera (in words): PDK1 50-360[CT-PIF] chimera. From the text:
We generated a PDK1 chimera consisting of the catalytic domain of PDK1 comprising residues 50-360 joined to the last 48 aminoacids from PRK2, which include the sequence of PIFtide (PDK1 50-360[CT-PIF]). PIFtide binds with high affinity to PDK1. Therefore, we expected that the HM/PIF-pocket in this protein would be strongly bound to the C-terminus of PRK2. In this scenario, the specific activity of the PDK1 50-360[CT-PIF] chimera would not be affected by compounds which otherwise would bind to the PDK1 50-360 HM/PIF-pocket. The PDK1 50-360[CT-PIF] chimera had 1.5-fold higher specific activity than the PDK1 catalytic domain alone. Furthermore, the activity of PDK1 50-360[CT-PIF] chimera was not affected by PIFtide at concentrations that activated the PDK1 50-360 protein (FIG. 2G). Finally, PDK1 50-360[CT-PIF] specific activity was not affected by compound 1, further supporting the notion that PIFtide and compound 1 targeted an overlapping site in the catalytic domain of PDK1.
For the spectrofluorometer assay, the PDK1 protein used was the catalytic domain of PDK1 (50-359) produced in SF9 insect cells using baculovirus expression technology (Invitrogen). PDK1 was cloned in pFastbac-HT plasmid (NcoI-KpnI sites) taking advantage of an endogenous NcoI site in the PDK1 DNA sequence. The codon corresponding to aminoacid 360 was replaced by a stop codon. […]
(§1) Protein kinase activity tests were performed essentially as previously described (Balendran et al., 2000; Biondi et al., 2000; Biondi et al., 2001). Substrates used were either MBP (for PKCζ or polypeptides (Crosstide for PKB, S6K, SGK and PRK2; T308tide for PDK1, and Kemptide for PKA). PKA (Sigma) was measured in the presence of 100 μM cAMP. Alternatively, assays were performed in a 96 well format, aliquots spotted on p81 phosphocellulose papers (Whatmann), washed in 0.01% phosphoric acid, dried, and then exposed and analysed using Phospholmager technology (Storm, Molecular Dynamics). Activity measurements were performed in duplicates with less than 10% difference between duplicate pairs. Experiments were repeated at least twice, although most of the experiments were repeated multiple times, with similar results.
PDK1 activity assay was performed in a 20 μl mix containing 50 mM Tris-HCl pH 7.5, 0.05 mg/ml BSA, 0.1% β-mercaptoethanol, 10 mM MgCl2, 100 μM [γ^32P]ATP (5-50 cpm/pmol), 0.003% Brij, 150 ng PDK1, and T308tide (from 0.05 to 1 mM). PDK1 specific activity was approximately 5 U/mg (when measured at 1 mM T308tide). […]
PDK1 activity was measured at room temperature using a polypeptide substrate derived from the activation loop phosphorylation site of PKB, T308tide (0.1 mM). […]

The target in test [2] is T2, PKA (Homo sapiens, UniProt P17612).
T2 construct: purchased Sigma
The test can be described thus: AGC kinase panel activity assay (Kemptide). The conditions noted are these: for PKA (%) activity: 1% DMSO = 100%. The protocol: as §1
Activity assays for each kinase were performed as described in Materials and Methods in the presence of 1% DMSO (100%). Except PKA, all protein kinases were produced as a GST-fusion. S6K1, PKBα, SGK mutants used were S6K1-T2-[Thr412Glu], PKBa[Ser473Asp] and ΔN-SGK[Ser422Asp].

For test [3], the target named is T3, GST-PDK1 [Phe157Leu] (Homo sapiens, UniProt O15530, F157L).
T3 construct: different protein constructs, comprising the full length protein or the catalytic domain alone; made in house; host or cells: HEK293 cells (pEBG-2T-PDK1 mutant)
T3 sequence (O15530 whole entry F157L, the tested form may be a part): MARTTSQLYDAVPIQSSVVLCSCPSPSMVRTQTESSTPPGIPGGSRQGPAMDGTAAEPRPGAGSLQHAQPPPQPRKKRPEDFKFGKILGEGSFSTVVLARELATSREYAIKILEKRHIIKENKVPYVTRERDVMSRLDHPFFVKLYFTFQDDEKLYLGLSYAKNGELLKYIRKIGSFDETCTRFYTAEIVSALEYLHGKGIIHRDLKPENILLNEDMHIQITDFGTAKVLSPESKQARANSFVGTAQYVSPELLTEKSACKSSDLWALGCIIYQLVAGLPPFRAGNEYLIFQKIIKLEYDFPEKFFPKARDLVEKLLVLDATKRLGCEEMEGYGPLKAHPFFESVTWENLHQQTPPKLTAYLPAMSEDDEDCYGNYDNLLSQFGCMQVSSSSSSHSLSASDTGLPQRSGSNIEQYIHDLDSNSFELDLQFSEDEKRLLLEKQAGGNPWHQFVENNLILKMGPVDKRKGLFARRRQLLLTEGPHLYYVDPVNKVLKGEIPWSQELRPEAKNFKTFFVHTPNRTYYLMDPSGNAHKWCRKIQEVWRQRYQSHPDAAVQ
The test can be described thus: PDK1 activity assay with T308tide.

Consider three compounds from patent US20110152166A1, “METHOD OF MODULATION OF PROTEIN PHOSPHORYLATION-DEPENDENT CONFORMATIONAL TRANSITIONS WITH LOW MOLECULAR WEIGHT COMPOUNDS” (priority 2006, published 2011).

Ends that are not written are not given here.

Consider `O=C(O)CSC(CC(=O)c1ccc(Cl)cc1)c1ccccc1` (centres unmarked) [Compound 1], for which, in test [1], the half-maximal activity concentration (AC50) (usually the concentration giving half of the maximal activity seen) is recorded as “No Effect”. In addition, the “effect on specific activity of chimera (in words)” value in test [1] is reported as “not affected”. Moreover, in test [2] (20 μM), the “effect on PKA activity (in words)” value is given as “no significant effect”. Moreover, the “PKA (%) activity” value in test [2] (20 μM compound) was 100%; in test [2] (200 μM compound), 94%.
On to `COC(=O)CSC(CC(=O)c1ccc(Cl)cc1)c1ccccc1` (centres unmarked) [Compound 2], for which the “PKA (%) activity” value came out at 109% in test [2] (20 μM compound) and 103% in test [2] (200 μM compound).
In test [3], “REPRILSEEEQEMFRDFDYIADWC [PIFtide, reference compound]” had an AC50 of 0.32 ± 0.19 µM and a Max. activity of 1.4 ± 0.14 U/mg. Moreover, in test [1], the AC50 result is given as “No Effect” and the “effect on specific activity of chimera (in words)” value is given as “not affected”.
